ChEMBL document CHEMBL1155085, “Propindilactones E-J, Schiartane Nortriterpenoids from Schisandra propinqua var. propinqua” (J Nat Prod, 2008)
pIC50: −log10 of the molar value.

Key:
Format in all cases: functional, cell-based
HT-29 = experiment: Cytotoxicity against human HT29 cells after 72 hrs by sulforhodamine B assay; conditions: HT-29, 72 h
K562 = experiment: Cytotoxicity against human K562 cells after 72 hrs by sulforhodamine B assay; conditions: K562, 72 h
A549 = experiment: Cytotoxicity against human A549 cells after 72 hrs by sulforhodamine B assay; conditions: A549, 72 h

Measured: pIC50

C[C@@H]([C@@H](O)[C@@H]1C[C@@H](C)C(=O)O1)[C@H]1[C@@H](O)[C@H](O)[C@]2(O)[C@@H]3C[C@H]4C(C)(C)O[C@@H]5CC(=O)O[C@@]54CC[C@@]3(O)CC[C@]12C [PRPINDILACETONES H]
< 4.00: all assays above

C[C@@H]([C@@H](O)[C@@H]1C[C@@H](C)C(=O)O1)[C@H]1C[C@H](O)[C@]2(O)[C@@H]3C[C@H]4C(C)(C)O[C@@H]5CC(=O)O[C@@]54CC[C@@]3(O)CC[C@]12C [PRPINDILACETONES I]
< 4.00: all assays above

CC(=O)O[C@@H]1C[C@]2(O)CC[C@]34OC(=O)C[C@H]3OC(C)(C)[C@@H]4C[C@H]2[C@]23O[C@H]2C[C@H]([C@@H](C)[C@H]2CC=C(C)C(=O)O2)[C@@]13C [PRPINDILACETONES J]
< 4.00: all assays above
